Results from patent publication US20240174641A1, “HETEROCYCLIC COMPOUNDS CAPABLE OF […]” (Boehringer Ingelheim International GmbH, priority 2022, published 2024).

Tested on: dog STING (dSTING)
Assay: Dog differential scanning fluorimetry (DSF) assay, thermal shift of dog STING protein
Assay type: binding
Details: DSF (dDSF); 100 μM compound, 3 μM dog STING protein; Tm with ligand minus Tm of protein alone
Excerpt: The protein used for the biophysical experiments was a recombinant dog STING protein comprising its cytosolic cGAMP binding ectodomain. A codon optimized DNA sequence (for expression in Escherichia coli) encoding amino acid residues 149 to 375 of dog STING was synthesized by GeneArt (Regensburg, Germany) and inserted into a pET17b E. coli expression vector. The protein construct encodes an N-terminal 8×His-tag followed by tobacco etch virus protease (TEV) cleavage site and the above STING gene sequence. The resulting protein sequence for the used dog STING protein (SEQ ID No. 1) is listed below:
For expression of the above recombinant dog STING, the construct was transformed into E. coli BL21 DE3 strain and grown in shake flasks in LB-medium at 15° C. Expression was induced by addition of isopropyl β-D-1-thiogalactopyranoside to a final concentration of 1 mM and cultures shaken overnight. Cell pellets were centrifuged and stored at −70° C. until further use. Protein was purified by cell thawing in lysis buffer (20 mM TRIS-HCl, pH 8, 500 mM NaCl, 1 mM DTT, 0.5 mg/ml lysozyme, Complete Protease Inhibitor (Roche) and DNase (Roche)), followed by metal affinity purification using Ni-NTA resins and elution buffer consisting of 20 mM TRIS-HCl, pH 8, 500 mM NaCl, 1 mM DTT, 300 mM imidazole. Cleavage of the His-Tag using TEV-protease took place during dialysis in size exclusion buffer (20 mM TRIS-HCl, pH 8, 100 mM NaCl, 1 mM DTT) over night. To further purify the target protein a reverse Nickel affinity column was used and the flow through was applied to a size exclusion chromatography. The peak fraction was collected and concentrated to 5 mg/mL.
Dye fluorescence is quenched in aqueous environment and increases upon association of the dye with the hydrophobic parts of the unfolding protein. […] The inflection point of the curve represents the “melting” temperature of the protein (Tm) which is calculated numerically using the Boltzmann equation.
The thermal stability of the dog STING protein was measured in assay buffer containing 20 mM Tris, 150 mM NaCl at pH7.5. The assay uses 384-Well qPCR Plates (Catalog #781358, BRAND), Microseal® ‘B’ Adhesive Seals for PCR Plates (Catalog #MSB-1001, BIO-RAD) and was run on a CFX384 Real-Time System (Bio-Rad). A DMSO stock solution of SYPRO orange (SIGMA 55692-500UL) was prepared. Compound stock solutions (10 mM in DMSO) were diluted 1:2 in DMSO to an intermediate compound concentration of 5 mM and then further diluted 1:40 in assay buffer resulting in a compound concentration of 125 μM and 2.5% DMSO. Fluorescent dye stock solution (5000×SYPRO Orange) was then mixed with target protein and buffer to a concentration of 15 μM Protein and 25×SYPRO Orange. 2 μl of this protein-dye-mixture was added to 8 μl compound solution. Final volume was 10 μL. 3-6 well positions were used as negative control (protein with 2% DMSO). The plates were prepared for duplicate measurement and centrifuged for 2 min at 1000 g. In the measurement, 160 cycles of 0.5° C. were used (temperature ramp 15 s/cycle, 15° C. to 95° C.).
Final Assay concentrations for compound characterization were 100 μM compound, 3 μM target protein, 5×SYPRO Orange, and 2% DMSO in 10 μl. All dispensing steps were performed using a HamiltonStar pipetting robot (Hamilton).
Dissociation curves were processed in Bio-Rad CFX Manager. Peak type was set to “negative”. Compound codes for screen were assigned in the plate layout.
Two replicates of TM measurements were averaged, and the standard deviation was calculated. In cases of SD>1.5° C. the measurement was repeated.
The melting point (Tm) obtained for STING protein alone was subtracted from T obtained for protein incubated with ligand to generate ΔTm values.

SMILES	Delta TM [°C]
Cc1cccc2c(-c3cccc4nn(C)c(F)c34)nn(-c3ccc(N4C[C@@H]5C[C@H]4C[C@H]5C(=O)O)nc3)c12 (racemic) [Example 19, 2-(5-{3″-fluoro-2″,7-dimethyl-1H,2″H-[3,4″-biindazol]-1-yl}pyridin-2-yl)-2-azabicyclo[2.2.1]heptane-5-carboxylic acid]	34.3
Cc1cccc2c(-c3cccc4nn(C)c(F)c34)nn(-c3ccc(N4CC5CCC4CC5C(=O)O)nc3)c12 (single isomer, unassigned) [Example 20-1, 2-(5-{3'-fluoro-2',7-dimethyl-1H,2'H-[3,4'-biindazol]-1-yl}pyridin-2-yl)-2-azabicyclo[2.2.2]octane-5-carboxylic acid]	20.9
Cc1cccc2c(-c3cccc4nn(C)c(F)c34)nn(-c3ccc(N4CC5CCC4CC5C(=O)O)nc3)c12 (single isomer, unassigned) [Example 20-2, 2-(5-{3'-fluoro-2',7-dimethyl-1H,2'H-[3,4'-biindazol]-1-yl}pyridin-2-yl)-2-azabicyclo[2.2.2]octane-5-carboxylic acid]	22.6
Cc1cccc2c(-c3c(F)ccc4nn(C)cc34)nn(-c3ccc(N4CC5CCC4CC5C(=O)O)nc3)c12 (single isomer, unassigned) [Example 28-1]	26.6
Cc1cccc2c(-c3c(F)ccc4nn(C)cc34)nn(-c3ccc(N4CC5CCC4CC5C(=O)O)nc3)c12 (single isomer, unassigned) [Example 28-2]	25.9
Cc1cccc2c(-c3cc(F)cc4nn(C)cc34)nn(-c3ccc(N4C[C@@H]5C[C@H]4C[C@H]5C(=O)O)nc3)c12 (single isomer, unassigned) [Example 38-1]	24.8
Cc1cccc2c(-c3cc(F)cc4nn(C)cc34)nn(-c3ccc(N4C[C@H]5C[C@@H]4C[C@@H]5C(=O)O)nc3)c12 (single isomer, unassigned) [Example 38-2]	23.0
Cc1cccc2c(-c3c(F)cc(F)c4nn(C)cc34)nn(-c3ccc(N4CC5CCC4CC5C(=O)O)nc3)c12 (single isomer, unassigned) [Example 48-1]	23.9
Cc1cccc2c(-c3c(F)cc(F)c4nn(C)cc34)nn(-c3ccc(N4CC5CCC4CC5C(=O)O)nc3)c12 (single isomer, unassigned) [Example 48-2]	24.6
Cc1cccc2c(-c3ccc(F)c4nn(C)c(F)c34)nn(-c3ccc(N4C[C@@H]5C[C@H]4C[C@H]5C(=O)O)nc3)c12 (single isomer, unassigned) [Example 56-1]	33.0
Cc1cccc2c(-c3ccc(F)c4nn(C)c(F)c34)nn(-c3ccc(N4C[C@H]5C[C@@H]4C[C@@H]5C(=O)O)nc3)c12 (single isomer, unassigned) [Example 56-2]	33.0
Cc1cccc2c(-c3c(F)ccc4nn(C)cc34)nn(-c3ccc(N4CCOC(CC(=O)O)C4)nc3)c12 [Example 26-1, 2-[(2R)-4-(5-{5″-fluoro-2″,7-dimethyl-1H,2″H-[3,4″-biindazol]-1-yl}pyridin-2-yl)morpholin-2-yl]acetic acid]	31.0
Cc1cccc2c(-c3c(F)ccc4nn(C)cc34)nn(-c3ccc(N4CCOC(CC(=O)O)C4)nc3)c12 [Example 26-2, 2-[(2S)-4-(5-{5″-fluoro-2″,7-dimethyl-1H,2″H-[3,4″-biindazol]-1-yl}pyridin-2-yl)morpholin-2-yl]acetic acid]	32.0
CC(=O)N1CC2CCC1CN2c1ccc(-n2nc(-c3c(F)ccc4nn(C)cc34)c3cccc(C)c32)cn1 (centres unmarked) [Example 32]	31.0
Cc1cccc2c(-c3cc(F)cc4nn(C)cc34)nn(-c3ccc(N4CCC(C(=O)O)CC4)nc3)c12 [Example 33, 1-(5-{6″-fluoro-2″,7-dimethyl-1H,2″H-[3,4″-biindazol]-1-yl}pyridin-2-yl)piperidine-4-carboxylic acid]	22.5
Cc1cccc2c(-c3cc(F)cc4nn(C)cc34)nn(-c3ccc(N4CC[C@@H](CC(=O)O)C4)nc3)c12 [Example 35, 2-[(3S)-1-(5-{6″-fluoro-2″,7-dimethyl-1H,2″H-[3,4″-biindazol]-1-yl}pyridin-2-yl)pyrrolidin-3-yl]acetic acid]	22.5
Cc1cccc2c(-c3cc(F)cc4nn(C)cc34)nn(-c3ccc(N4CC[C@H](CC(=O)O)C4)nc3)c12 [Example 36, 2-[(3R)-1-(5-{6″-fluoro-2″,7-dimethyl-1H,2″H-[3,4″-biindazol]-1-yl}pyridin-2-yl)pyrrolidin-3-yl]acetic acid]	24.0
Cc1cccc2c(-c3cc(F)cc4nn(C)cc34)nn(-c3ccc(N4CCO[C@H](CC(=O)O)C4)nc3)c12 [Example 37-1, 2-[(2R)-4-(5-{6″-fluoro-2″,7-dimethyl-1H,2″H-[3,4″-biindazol]-1-yl}pyridin-2-yl)morpholin-2-yl]acetic acid]	16.0
Cc1cccc2c(-c3cc(F)cc4nn(C)cc34)nn(-c3ccc(N4CCO[C@@H](CC(=O)O)C4)nc3)c12 [Example 37-2, 2-[(2S)-4-(5-{6″-fluoro-2″,7-dimethyl-1H,2″H-[3,4″-biindazol]-1-yl}pyridin-2-yl)morpholin-2-yl]acetic acid]	18.0
Cc1cccc2c(-c3cc(F)cc4nn(C)cc34)nn(-c3ccc(N4CC5CCC4CC5C(=O)O)nc3)c12 (centres unmarked) [Example 39, 2-(5-{6″-fluoro-2″,7-dimethyl-1H,2″H-[3,4″-biindazol]-1-yl}pyridin-2-yl)-2-azabicyclo [2.2.2]octane-5-carboxylic acid]	−0.3
CC(=O)N1CCN(c2ccc(-n3nc(-c4cc(F)cc5nn(C)cc45)c4cccc(C)c43)cn2)CC1 [Example 40, 1-[4-(5-{6″-fluoro-2″,7-dimethyl-1H,2″H-[3,4″-biindazol]-1-yl}pyridin-2-yl)piperazin-1-yl]ethan-1-one]	17.8
CC(=O)N1C[C@@H]2C[C@H]1CN2c1ccc(-n2nc(-c3cc(F)cc4nn(C)cc34)c3cccc(C)c32)cn1 [Example 41, 1-[(1S,4S)-5-(5-{6″-fluoro-2″,7-dimethyl-1H,2″H-[3,4″-biindazol]-1-yl}pyridin-2-yl)-2,5-diazabicyclo[2.2.1]heptan-2-yl]ethan-1-one]	16.0
CC(=O)N1C[C@H]2C[C@@H]1CN2c1ccc(-n2nc(-c3cc(F)cc4nn(C)cc34)c3cccc(C)c32)cn1 [Example 42, 1-[(1R,4R)-5-(5-{6″-fluoro-2″,7-dimethyl-1H,2″H-[3,4″-biindazol]-1-yl}pyridin-2-yl)-2,5-diazabicyclo[2.2.1]heptan-2-yl]ethan-1-one]	15.8
CC(=O)N1CC2CCC1CN2c1ccc(-n2nc(-c3cc(F)cc4nn(C)cc34)c3cccc(C)c32)cn1 (centres unmarked) [Example 43, 1-[5-(5-{6″-fluoro-2″,7-dimethyl-1H,2″H-[3,4″-biindazol]-1-yl}pyridin-2-yl)-2,5-diazabicyclo[2.2.2]octan-2-yl]ethan-1-one]	16.0
CC(=O)N1C[C@@H]2C[C@H]1CN2c1ccc(-n2nc(-c3c(F)cc(F)c4nn(C)cc34)c3cccc(C)c32)cn1 [Example 50, 1-[(1S,4S)-5-(5-{5″,7″-difluoro-2″,7-dimethyl-1H,2″H-[3,4″-biindazol]-1-yl}pyridin-2-yl)-2,5-diazabicyclo[2.2.1]heptan-2-yl]ethan-1-one]	25.0
CC(=O)N1CC2CCC1CN2c1ccc(-n2nc(-c3c(F)cc(F)c4nn(C)cc34)c3cccc(C)c32)cn1 (centres unmarked) [Example 52, 1-[5-(5-{5″,7″-difluoro-2″,7-dimethyl-1H,2″H-[3,4″-biindazol]-1-yl}pyridin-2-yl)-2,5-diazabicyclo [2.2.2]octan-2-yl]ethan-1-one]	25.8
